Test results as given in patent publication US7892569B2, “Methods of altering an immune response induced by CpG oligodeoxynucleotides” (The United States of America as represented by the …, priority 2005, dated 2011).

Columns and labels:
pDC [1] = experiment: Binding of FITC conjugated CpG ODN to purified pDC in the presence of scavenger receptor ligands (flow cytometry); type: cell-based, human; conditions: 50 μg/ml inhibitor, preincubated 20 min at 4° C., mean ± S.D
Protocol: (§1) FIGS. 3A-3D are bar graphs and plots showing the effect of scavenger receptor ligands on the binding and activity of CpG ODN. FIG. 3A is a bar graph of the results obtained when purified pDC were preincubated (20 minutes at 4° C.) with medium or with 50 μg/ml each of inhibitors followed by addition of 1 μM FITC conjugated ODN. Mean fluorescence intensity representing binding of FITC-ODN was assessed using flow cytometry. Results represent the mean±S.D of three independent experiments. FIG. 3B is a bar graph showing D ODN induced IFN-α from peripheral blood mononuclear cells (PBMC). Open bars: medium; dotted bars: chondroitin sulfate; right-striped bars: fucoidan; left-striped bars: dextran sulfate Production of IFN-α from PBMC (in the absence or presence of 50 μg/ml inhibitors) was determined by ELISA from 24 hour culture supernatants. FIG. 3C is a plot showing K ODN induced TNF-α production in pDC (in the absence or presence of 50 μg/ml dextran sulfate). TNF-α production was determined using intracytoplasmic cytokine staining (representative plots of three independent experiments). FIG. 3D is a plot showing the results obtained when purified pDC were incubated with 1 μM each of K or with 3 μM D ODN in the absence or presence of 50 μg/ml dextran sulfate. Upregulation of HLA-DR/CD54 was determined 24 hours later using flow cytometry.
To evaluate whether a scavenger receptor (SR) played a role in D ODN uptake and signaling, the ability of dextran sulfate and fucoidan (classical scavenger receptor ligands) to block the binding of CpG ODN to pDC was evaluated (Table 2 and Supplementary FIG. 3A).

pDC [2] = experiment: CXCL16 expression on pDC after preincubation of PBMC with GM-6001; type: cell-based, human; conditions: 50 μM, 30 minutes preincubation of PBMC
Protocol: (§2) FIGS. 7A-7B are a plot and a bar graph showing the metalloproteinase inhibitor GM-6001 enhances CXCL16 expression and subsequent cytokine production induced by D ODN. PBMC were preincubated in the absence (open bars) or presence (filled bars) of GM-6001 (50 μM) for 30 minutes, washed and then stained for CXCL16 expression on pDC (see FIG. 7A) or stimulated with 1 μM of K or 3 μM D ODN for 24 hours (FIG. 7B). Cytokine production (IL-6 for K ODN and IFN-α D ODN) was assessed from culture supernatants using ELISA. Individual results from six different PBMC are shown.
(§3) CXCL16 expressed on the cell surface is cleaved by the metalloproteinase ADAM-10 (Abel et al., J Immunol. 2004 172(10):6362-72, 2004; Gough et al., J Immunol. 172(6):3678-85, 2004). […] Based on the observation that pDC expressing high levels of CXCL16 were more responsive to D ODN stimulation, human PBMC were incubated with GM6001 followed by K or D ODNs.

PBMC [3] = experiment: Cytokine production of PBMC preincubated with GM-6001 and stimulated with K or D ODN (ELISA); type: cell-based, human; conditions: 50 μM preincubation, 24 hours
Protocol: as §2, §3

[4] = Cytokine induction by D ODN (statement in the description); type: cell-based; conditions: no test described
pDC [5] = experiment: Upregulation of HLA-DR/CD54 on purified pDC by CpG ODN in the absence or presence of dextran sulfate; type: cell-based, human; conditions: 24 hours, 50 μg/ml inhibitor
Protocol: as §1, with “FIG. 3A is a bar graph of the results obtained when purified pDC were preincubated (20 minutes at 4° C.) with medium or with 50 μg/ml each of inhibitors followed by addition of 1 μM FITC conjugated ODN.” left out, “FIG. 3B is a bar graph showing D ODN induced IFN-α from peripheral blood mononuclear cells (PBMC).” left out, “FIG. 3C is a plot showing K ODN induced TNF-α production in pDC (in the absence or presence of 50 μg/ml dextran sulfate).” left out

PBMC [6] = experiment: CpG ODN induced cytokine secretion (TNF-α, IFN-α) in the absence or presence of scavenger receptor ligands; type: cell-based, human; conditions: 50 μg/ml inhibitor
Protocol: as §1, with “FIG. 3A is a bar graph of the results obtained when purified pDC were preincubated (20 minutes at 4° C.) with medium or with 50 μg/ml each of inhibitors followed by addition of 1 μM FITC conjugated ODN.” left out, “FIG. 3B is a bar graph showing D ODN induced IFN-α from peripheral blood mononuclear cells (PBMC).” left out, “FIG. 3C is a plot showing K ODN induced TNF-α production in pDC (in the absence or presence of 50 μg/ml dextran sulfate).” left out

[7] = D ODN: 1 μM FITC conjugated ODN

chondroitin sulfate
% inhibition of binding to pDC (pDC [1]; [7]): not

CNC(=O)[C@H](Cc1c[nH]c2ccccc12)NC(=O)[C@@H](CC(=O)NO)CC(C)C [GM6001]
expression of CXCL16 on pDC (pDC [2]): increased | effect on cells stimulated with K ODN (IL-6 production) (PBMC [3]; 1 μM K ODN): no effect | increase of D ODN responsiveness of pDCs (IFN-α production) (PBMC [3]; 3 μM D ODN): 2 fold

DV113: D ODN GGTGCATCGATACAGGGGGG (SEQ ID NO: 6) (DNA, backbone not given here; underlined bases phosphodiester, further chemistry not fully specified)
induction of IFN-γ and IFN-α [4]: high levels

Dextran sulfate
% inhibition in the generation of HLA-DR/CD54 double positive cells (pDC [5]; 1 μM K ODN): 0.8 ± 1.8% | % inhibition in the generation of HLA-DR/CD54 double positive cells (pDC [5]; 3 μM D ODN): 92.3 ± 5.8% | % inhibition of cytokine secretion (PBMC [6]; D ODN induced IFN-α production from PBMC, ELISA): 90.3 ± 8.4% | % inhibition of cytokine secretion (PBMC [6]; K ODN induced TNF-α production, intracytoplasmic staining): 5.8 ± 2.3% | % inhibition of binding to pDC (pDC [1]; [7]): > 50% | % inhibition of binding to pDC (pDC [1]; D ODN: 1 μM FITC conjugated ODN, listed as Dextran Sulfate): 65.02 ± 5.8% | % inhibition of binding to pDC (pDC [1]; K ODN: 1 μM FITC conjugated ODN): not | % inhibition of binding to pDC (pDC [1]; K ODN: 1 μM FITC conjugated ODN, listed as Dextran Sulfate): 23.2 ± 8.8%
